Experimental data from PubChem BioAssay AID1963431 (Molecular Pharmacology Branch, DTP, NCI, 2024).
Values belong to the compound of their own block, whether it stands above or below them.

Test system: Rh18 complex spheroid viability, percent test/control
Test: Anticancer human tumor Rh18 cell line growth inhibition [Asc];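 also: spheroids exposed to compound for 7 days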;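 as to viability, T/C: 100% = DMSO vehicle control wells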
Conditions: for IC50: curve of first compound; for viability, T/C: stronger effect = lower value
Method in brief: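 Spheroid model: tumor line + HUVEC + hMSC. Single agents and combinations; top conc. at/near clinical Cmax (10 microM if undetermined), half-log dilutions. DMSO stocks at 800-fold test concentration.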

[1] = second compound 0.01 µM, first compound 0.0316 µM
[2] = second compound 0.01 µM, first compound 0.1 µM
[3] = second compound 0.01 µM, first compound 0.316 µM
[4] = second compound 0.01 µM, first compound 1 µM
[5] = second compound 0.0316 µM, first compound 0.0316 µM
[6] = second compound 0.0316 µM, first compound 0.1 µM
[7] = second compound 0.0316 µM, first compound 0.316 µM
[8] = second compound 0.0316 µM, first compound 1 µM
[9] = second compound 0.1 µM, first compound 0.0316 µM
[10] = second compound 0.1 µM, first compound 0.1 µM
[11] = second compound 0.1 µM, first compound 0.316 µM
[12] = second compound 0.1 µM, first compound 1 µM
[13] = second compound 0.316 µM, first compound 0.0316 µM
[14] = second compound 0.316 µM, first compound 0.1 µM
[15] = second compound 0.316 µM, first compound 0.316 µM
[16] = second compound 0.316 µM, first compound 1 µM
[17] = second compound 1 µM, first compound 0.0316 µM
[18] = second compound 1 µM, first compound 0.1 µM
[19] = second compound 1 µM, first compound 0.316 µM
[20] = second compound 1 µM, first compound 1 µM
[21] = second compound 0.01 µM, first compound 0.00316 µM
[22] = second compound 0.01 µM, first compound 0.01 µM
[23] = second compound 0.0316 µM, first compound 0.00316 µM
[24] = second compound 0.0316 µM, first compound 0.01 µM
[25] = second compound 0.1 µM, first compound 0.00316 µM
[26] = second compound 0.1 µM, first compound 0.01 µM
[27] = second compound 0.316 µM, first compound 0.00316 µM
[28] = second compound 0.316 µM, first compound 0.01 µM
[29] = second compound 1 µM, first compound 0.00316 µM
[30] = second compound 1 µM, first compound 0.01 µM

- IC50 (second compound 0.01 µM): > 10000 nM
- IC50 (second compound 0.0316 µM): 4450 nM
- IC50 (second compound 0.1 µM): 61 nM
- IC50 (second compound 0.316 µM): < 31.6 nM
- IC50 (second compound 1 µM): < 31.6 nM
Compound: C=CC(=O)N1CCN(c2nc(=O)n(-c3c(C)ccnc3C(C)C)c3nc(-c4c(O)cccc4F)c(F)cc23)C(C)C1 (stereo not given) + CNC(C)C(=O)NC1CN(S(=O)(=O)c2cccc(S(=O)(=O)N3CCC4CCC(C(=O)NC(c5ccccc5)c5ccccc5)N4C(=O)C(NC(=O)C(C)NC)C3)c2)CCC2CCC(C(=O)NC(c3ccccc3)c3ccccc3)N2C1=O
- viability, T/C [1]: 61.6%
- viability, T/C [2]: 63.6%
- viability, T/C [3]: 56%
- viability, T/C [4]: 51.8%
- viability, T/C (second compound 0.01 µM, first compound 3.16 µM): 59.8%
- viability, T/C (second compound 0.01 µM, first compound 10 µM): 61.1%
- viability, T/C [5]: 52.4%
- viability, T/C [6]: 54.8%
- viability, T/C [7]: 61.9%
- viability, T/C [8]: 46.2%
- viability, T/C (second compound 0.0316 µM, first compound 3.16 µM): 60.7%
- viability, T/C (second compound 0.0316 µM, first compound 10 µM): 37.8%
- viability, T/C [9]: 49.4%
- viability, T/C [10]: 52%
- viability, T/C [11]: 48.6%
- viability, T/C [12]: 43.1%
- viability, T/C (second compound 0.1 µM, first compound 3.16 µM): 46.4%
- viability, T/C (second compound 0.1 µM, first compound 10 µM): 43.6%
- viability, T/C [13]: 43.1%
- viability, T/C [14]: 41.3%
- viability, T/C [15]: 41.2%
- viability, T/C [16]: 43.9%
- viability, T/C (second compound 0.316 µM, first compound 3.16 µM): 52.5%
- viability, T/C (second compound 0.316 µM, first compound 10 µM): 45.4%
- viability, T/C [17]: 44.1%
- viability, T/C [18]: 45%
- viability, T/C [19]: 46.4%
- viability, T/C [20]: 40%
- viability, T/C (second compound 1 µM, first compound 3.16 µM): 35.4%
- viability, T/C (second compound 1 µM, first compound 10 µM): 35.9%

- IC50 (second compound 0.01 µM): 4.1 nM
- IC50 (second compound 0.0316 µM): < 3.16 nM
- IC50 (second compound 0.1 µM): < 3.16 nM
- IC50 (second compound 0.316 µM): < 3.16 nM
- IC50 (second compound 1 µM): < 3.16 nM
Compound: COc1c(OCCCN2CCOCC2)ccc2c3n(c(=NC(=O)c4cnc(N)nc4)nc12)CCN3 + CNC(C)C(=O)NC1CN(S(=O)(=O)c2cccc(S(=O)(=O)N3CCC4CCC(C(=O)NC(c5ccccc5)c5ccccc5)N4C(=O)C(NC(=O)C(C)NC)C3)c2)CCC2CCC(C(=O)NC(c3ccccc3)c3ccccc3)N2C1=O
- viability, T/C [21]: 56.5%
- viability, T/C [22]: 28.1%
- viability, T/C [1]: 13.5%
- viability, T/C [2]: 5.19%
- viability, T/C [3]: 1.61%
- viability, T/C [4]: 0.4%
- viability, T/C [23]: 38.4%
- viability, T/C [24]: 26.1%
- viability, T/C [5]: 8.33%
- viability, T/C [6]: 2.99%
- viability, T/C [7]: 2.16%
- viability, T/C [8]: 0.41%
- viability, T/C [25]: 37.3%
- viability, T/C [26]: 27.9%
- viability, T/C [9]: 9.81%
- viability, T/C [10]: 2.85%
- viability, T/C [11]: 1.49%
- viability, T/C [12]: 0.35%
- viability, T/C [27]: 31.4%
- viability, T/C [28]: 22.4%
- viability, T/C [13]: 9.6%
- viability, T/C [14]: 2.64%
- viability, T/C [15]: 1.51%
- viability, T/C [16]: 0.29%
- viability, T/C [29]: 27.5%
- viability, T/C [30]: 20.3%
- viability, T/C [17]: 6.75%
- viability, T/C [18]: 3.45%
- viability, T/C [19]: 1.17%
- viability, T/C [20]: 0.36%

- IC50 (second compound 0.01 µM): 6.12 nM
- IC50 (second compound 0.0316 µM): 3.91 nM
- IC50 (second compound 0.1 µM): 15 nM
- IC50 (second compound 0.316 µM): 4.49 nM
- IC50 (second compound 1 µM): < 0.949 nM
Compound: NC(=O)C(=Cn1cnc(-c2cc(C(F)(F)F)cc(C(F)(F)F)c2)n1)c1cncnc1 + CNC(C)C(=O)NC1CN(S(=O)(=O)c2cccc(S(=O)(=O)N3CCC4CCC(C(=O)NC(c5ccccc5)c5ccccc5)N4C(=O)C(NC(=O)C(C)NC)C3)c2)CCC2CCC(C(=O)NC(c3ccccc3)c3ccccc3)N2C1=O
- viability, T/C (second compound 0.01 µM, first compound 0.000949 µM): 56.6%
- viability, T/C (second compound 0.01 µM, first compound 0.003 µM): 53.5%
- viability, T/C (second compound 0.01 µM, first compound 0.00949 µM): 49.4%
- viability, T/C (second compound 0.01 µM, first compound 0.03 µM): 39.7%
- viability, T/C (second compound 0.01 µM, first compound 0.0949 µM): 42%
- viability, T/C (second compound 0.01 µM, first compound 0.3 µM): 32.8%
- viability, T/C (second compound 0.0316 µM, first compound 0.000949 µM): 74.8%
- viability, T/C (second compound 0.0316 µM, first compound 0.003 µM): 51.3%
- viability, T/C (second compound 0.0316 µM, first compound 0.00949 µM): 40.7%
- viability, T/C (second compound 0.0316 µM, first compound 0.03 µM): 43.8%
- viability, T/C (second compound 0.0316 µM, first compound 0.0949 µM): 38.7%
- viability, T/C (second compound 0.0316 µM, first compound 0.3 µM): 31.4%
- viability, T/C (second compound 0.1 µM, first compound 0.000949 µM): 50.5%
- viability, T/C (second compound 0.1 µM, first compound 0.003 µM): 56.4%
- viability, T/C (second compound 0.1 µM, first compound 0.00949 µM): 49.7%
- viability, T/C (second compound 0.1 µM, first compound 0.03 µM): 47.6%
- viability, T/C (second compound 0.1 µM, first compound 0.0949 µM): 33.1%
- viability, T/C (second compound 0.1 µM, first compound 0.3 µM): 27.7%
- viability, T/C (second compound 0.316 µM, first compound 0.000949 µM): 52%
- viability, T/C (second compound 0.316 µM, first compound 0.003 µM): 60.1%
- viability, T/C (second compound 0.316 µM, first compound 0.00949 µM): 38.7%
- viability, T/C (second compound 0.316 µM, first compound 0.03 µM): 29.7%
- viability, T/C (second compound 0.316 µM, first compound 0.0949 µM): 34.3%
- viability, T/C (second compound 0.316 µM, first compound 0.3 µM): 24.9%
- viability, T/C (second compound 1 µM, first compound 0.000949 µM): 46%
- viability, T/C (second compound 1 µM, first compound 0.003 µM): 39.5%
- viability, T/C (second compound 1 µM, first compound 0.00949 µM): 38%
- viability, T/C (second compound 1 µM, first compound 0.03 µM): 37.8%
- viability, T/C (second compound 1 µM, first compound 0.0949 µM): 34.3%
- viability, T/C (second compound 1 µM, first compound 0.3 µM): 25.6%

- IC50 (second compound 0.01 µM): > 100 nM
- IC50 (second compound 0.0316 µM): > 100 nM
- IC50 (second compound 0.1 µM): < 0.316 nM
- IC50 (second compound 0.316 µM): > 100 nM
- IC50 (second compound 1 µM): < 0.316 nM
Compound: NC1CCC(NC2CC2c2ccccc2)CC1 (stereo not given) + CNC(C)C(=O)NC1CN(S(=O)(=O)c2cccc(S(=O)(=O)N3CCC4CCC(C(=O)NC(c5ccccc5)c5ccccc5)N4C(=O)C(NC(=O)C(C)NC)C3)c2)CCC2CCC(C(=O)NC(c3ccccc3)c3ccccc3)N2C1=O
- viability, T/C (second compound 0.01 µM, first compound 0.000316 µM): 53.7%
- viability, T/C (second compound 0.01 µM, first compound 0.001 µM): 72.9%
- viability, T/C [21]: 72.5%
- viability, T/C [22]: 66.5%
- viability, T/C [1]: 65.1%
- viability, T/C [2]: 61.5%
- viability, T/C (second compound 0.0316 µM, first compound 0.000316 µM): 53%
- viability, T/C (second compound 0.0316 µM, first compound 0.001 µM): 53.9%
- viability, T/C [23]: 53.5%
- viability, T/C [24]: 61.5%
- viability, T/C [5]: 53.1%
- viability, T/C [6]: 53%
- viability, T/C (second compound 0.1 µM, first compound 0.000316 µM): 48.1%
- viability, T/C (second compound 0.1 µM, first compound 0.001 µM): 54.7%
- viability, T/C [25]: 48.7%
- viability, T/C [26]: 55.5%
- viability, T/C [9]: 52.3%
- viability, T/C [10]: 56.1%
- viability, T/C (second compound 0.316 µM, first compound 0.000316 µM): 53.6%
- viability, T/C (second compound 0.316 µM, first compound 0.001 µM): 54%
- viability, T/C [27]: 52.6%
- viability, T/C [28]: 53.1%
- viability, T/C [13]: 53.6%
- viability, T/C [14]: 59.4%
- viability, T/C (second compound 1 µM, first compound 0.000316 µM): 43.8%
- viability, T/C (second compound 1 µM, first compound 0.001 µM): 50.9%
- viability, T/C [29]: 42.6%
- viability, T/C [30]: 44.8%
- viability, T/C [17]: 50.2%
- viability, T/C [18]: 56%
